Results from US10369138B2, “Monobactam organic compounds for the treatment of bacterial infections” (Novartis AG, priority 2014, dated 2019).
Values after ≈ are worked out from the molar mass of the structure shown.

Legend:
E. coli strain 25922 = experiment: MIC by broth microdilution, E. coli strain 25922; format: cell-based; conditions: Escherichia coli, 25922, E. coli strain 25922; read-out: Ec 25922 (MIC)
Outline: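 CLSI broth microdilution in cation-adjusted Mueller-Hinton broth, inoculum about 5×10^5 CFU/mL, 10% DMSO from the diluted series, 20 h at 35-37° C. MIC is the lowest concentration preventing visible growth, read by eye and at 600 nm.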

E. coli containing KPC-2 = experiment: MIC by broth microdilution, E. coli containing KPC-2 (Ec KPC2 Iso); format: cell-based; conditions: Escherichia coli, read-out: Ec KPC2 Iso (MIC), E. coli containing KPC-2 (carbapenemase from Klebsiella pneumoniae)
Outline: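 Host E. coli BW25113 pspB carrying multicopy pBAD18-kan plasmid with constitutive TEM-promoter KPC-2 expression (periplasmic signal sequence); broth microdilution per CLSI in cation-adjusted Mueller-Hinton broth, inoculum ~5×10^5 CFU/mL, compounds twofold serially diluted from DMSO masters (10% DMSO in dilution series added).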

Compound | MIC (E. coli strain 25922) [µg/mL] | MIC (E. coli containing KPC-2) [µg/mL]
N=C(NCc1cnn(C[C@@H]2[C@H](NC(=O)/C(=N\OC3(C(=O)O)CC3)c3csc(N)n3)C(=O)N2S(=O)(=O)O)n1)N[C@H]1C[C@H](N)C1 [Example 125, 1-(((Z)-(2-(((2R,3S)-2-((4-((3-((1 r,3R)-3-aminocyclobutyl)guanidino)methyl)-2H-1,2,3-triazol-2-yl)methyl)-4-oxo-1-sulfoazetidin-3-yl)amino)-1-(2-aminothiazol-4-yl)-2-oxoethylidene)amino)oxy)cyclopropanecarboxylic acid] | 0.25 (≈ 0.39 µM) | 0.5 (≈ 0.78 µM)
N=C(NCc1cnn(C[C@@H]2[C@H](NC(=O)/C(=N\OC3(C(=O)O)CC3)c3csc(N)n3)C(=O)N2S(=O)(=O)O)n1)NCC1CNC1 [Example 126, 1-(((Z)-(1-(2-aminothiazol-4-yl)-2-(((2R,3S)-2-((4-((3-(azetidin-3-ylmethyl)guanidino)methyl)-2H-1,2,3-triazol-2-yl)methyl)-4-oxo-1-sulfoazetidin-3-yl)amino)-2-oxoethylidene)amino)oxy)cyclopropanecarboxylic acid] | 0.5 (≈ 0.78 µM) | 0.5 (≈ 0.78 µM)
N=C(NCc1cnn(C[C@@H]2[C@H](NC(=O)/C(=N\OC3(C(=O)O)CC3)c3csc(N)n3)C(=O)N2S(=O)(=O)O)n1)N1CC(CN)C1 [Example 127, 1-(((Z)-(2-(((2R,3S)-2-((4-((3-(aminomethyl)azetidine-1-carboximidamido)methyl)-2H-1,2,3-triazol-2-yl)methyl)-4-oxo-1-sulfoazetidin-3-yl)amino)-1-(2-aminothiazol-4-yl)-2-oxoethylidene)amino)oxy)cyclopropanecarboxylic acid] | 0.25 (≈ 0.39 µM) | 0.25 (≈ 0.39 µM)
N=C(NCc1cnn(C[C@@H]2[C@H](NC(=O)/C(=N\OC3(C(=O)O)CC3)c3csc(N)n3)C(=O)N2S(=O)(=O)O)n1)NC1CCNCC1 [Example 128, 1-(((Z)-(1-(2-aminothiazol-4-yl)-2-oxo-2-(((3S,4R)-2-oxo-4-((4-((3-(piperidin-4-yl)guanidino)methyl)-2H-1,2,3-triazol-2-yl)methyl)-1-sulfoazetidin-3-yl)amino)ethylidene)amino)oxy)cyclopropanecarboxylic acid] | 0.5 (≈ 0.764 µM) | 1 (≈ 1.53 µM)
N=C(NCCN)NCc1cnn(C[C@@H]2[C@H](NC(=O)/C(=N\OC3(C(=O)O)CC3)c3csc(N)n3)C(=O)N2S(=O)(=O)O)n1 [Example 129, 1-(((Z)-(2-(((2R,3S)-2-((4-((3-(2-aminoethyl)guanidino)methyl)-2H-1,2,3-triazol-2-yl)methyl)-4-oxo-1-sulfoazetidin-3-yl)amino)-1-(2-aminothiazol-4-yl)-2-oxoethylidene)amino)oxy)cyclopropanecarboxylic acid] | 0.5 (≈ 0.814 µM) | 1 (≈ 1.63 µM)
N=C(N)N(CCCN)Cc1cnn(C[C@@H]2[C@H](NC(=O)/C(=N\OC3(C(=O)O)CC3)c3csc(N)n3)C(=O)N2S(=O)(=O)O)n1 [Example 130, 1-(((Z)-(2-(((2R,3S)-2-((4-((1-(3-aminopropyl)guanidino)methyl)-2H-1,2,3-triazol-2-yl)methyl)-4-oxo-1-sulfoazetidin-3-yl)amino)-1-(2-aminothiazol-4-yl)-2-oxoethylidene)amino)oxy)cyclopropanecarboxylic acid] | 1 (≈ 1.59 µM) | 2 (≈ 3.18 µM)
CC(C)(N)CCNCc1cnn(C[C@@H]2[C@H](NC(=O)/C(=N\OC3(C(=O)O)CC3)c3csc(N)n3)C(=O)N2S(=O)(=O)O)n1 [Example 131, 1-(((Z)-(2-(((2R,3S)-2-((4-(((3-amino-3-methylbutyl)amino)methyl)-2H-1,2,3-triazol-2-yl)methyl)-4-oxo-1-sulfoazetidin-3-yl)amino)-1-(2-aminothiazol-4-yl)-2-oxoethylidene)amino)oxy)cyclopropanecarboxylic acid] | 1 (≈ 1.63 µM) | 2 (≈ 3.25 µM)
CC(C)(CCN)NCc1cnn(C[C@@H]2[C@H](NC(=O)/C(=N\OC3(C(=O)O)CC3)c3csc(N)n3)C(=O)N2S(=O)(=O)O)n1 [Example 132, 1-(((Z)-(2-(((2R,3S)-2-((4-(((4-amino-2-methylbutan-2-yl)amino)methyl)-2H-1,2,3-triazol-2-yl)methyl)-4-oxo-1-sulfoazetidin-3-yl)amino)-1-(2-aminothiazol-4-yl)-2-oxoethylidene)amino)oxy)cyclopropanecarboxylic acid] | 1 (≈ 1.63 µM) | 1 (≈ 1.63 µM)
NCCOC(=O)NCc1cnn(C[C@@H]2[C@H](NC(=O)/C(=N\OC3(C(=O)O)CC3)c3csc(N)n3)C(=O)N2S(=O)(=O)O)n1 [Example 133, 1-(((Z)-(2-(((2R,3S)-2-((4-((((2-aminoethoxy)carbonyl)amino)methyl)-2H-1,2,3-triazol-2-yl)methyl)-4-oxo-1-sulfoazetidin-3-yl)amino)-1-(2-aminothiazol-4-yl)-2-oxoethylidene)amino)oxy)cyclopropanecarboxylic acid] | 1 (≈ 1.62 µM) | 0.5 (≈ 0.811 µM)
NCC(=O)NCc1cnn(C[C@@H]2[C@H](NC(=O)/C(=N\OC3(C(=O)O)CC3)c3csc(N)n3)C(=O)N2S(=O)(=O)O)n1 [Example 134, 1-(((Z)-(2-(((2R,3S)-2-((4-((2-aminoacetamido)methyl)-2H-1,2,3-triazol-2-yl)methyl)-4-oxo-1-sulfoazetidin-3-yl)amino)-1-(2-aminothiazol-4-yl)-2-oxoethylidene)amino)oxy)cyclopropanecarboxylic acid] | 0.5 (≈ 0.852 µM) | 0.25 (≈ 0.426 µM)
NCCNC(=O)NCc1cnn(C[C@@H]2[C@H](NC(=O)/C(=N\OC3(C(=O)O)CC3)c3csc(N)n3)C(=O)N2S(=O)(=O)O)n1 [Example 135, 1-(((Z)-(2-(((2R,3S)-2-((4-((3-(2-aminoethyl)ureido)methyl)-2H-1,2,3-triazol-2-yl)methyl)-4-oxo-1-sulfoazetidin-3-yl)amino)-1-(2-aminothiazol-4-yl)-2-oxoethylidene)amino)oxy)cyclopropanecarboxylic acid] | 0.5 (≈ 0.812 µM) | 0.5 (≈ 0.812 µM)
NCCCNC(=O)NCc1cnn(C[C@@H]2[C@H](NC(=O)/C(=N\OC3(C(=O)O)CC3)c3csc(N)n3)C(=O)N2S(=O)(=O)O)n1 [Example 136, 1-(((Z)-(2-(((2R,3S)-2-((4-((3-(3-aminopropyl)ureido)methyl)-2H-1,2,3-triazol-2-yl)methyl)-4-oxo-1-sulfoazetidin-3-yl)amino)-1-(2-aminothiazol-4-yl)-2-oxoethylidene)amino)oxy)cyclopropanecarboxylic acid] | 0.5 (≈ 0.794 µM) | 0.5 (≈ 0.794 µM)
C[n+]1cccc(CNCc2cnn(C[C@@H]3[C@H](NC(=O)/C(=N\OC4(C(=O)O)CC4)c4csc(N)n4)C(=O)N3S(=O)(=O)O)n2)c1 [Example 137, (2R,3S)-3-((Z)-2-(2-aminothiazol-4-yl)-2-((1-carboxycyclopropoxy)-imino)acetamido)-2-((4-((((1-methylpyridin-1-ium-3-yl)methyl)amino)methyl)-2H-1,2,3-triazol-2-yl)methyl)-4-oxoazetidine-1-sulfonate] | 1 | 0.5
Nc1nc(/C(=N/OC2(C(=O)O)CC2)C(=O)N[C@@H]2C(=O)N(S(=O)(=O)O)[C@@H]2Cn2ncc(CN3CCC(N)CC3)n2)cs1 [Example 138, 1-(((Z)-(2-(((2R,3S)-2-((4-((4-aminopiperidin-1-yl)methyl)-2H-1,2,3-triazol-2-yl)methyl)-4-oxo-1-sulfoazetidin-3-yl)amino)-1-(2-aminothiazol-4-yl)-2-oxoethylidene)amino)oxy)cyclopropanecarboxylic acid] | 0.5 (≈ 0.816 µM) | 1 (≈ 1.63 µM)
